Source: patent US20250281449A1, “NITROGEN-CONTAINING ANALOGS OF SALINOMYCIN FOR USE IN MULTIPLE MYELOMA (MM)” (Centre National de la Recherche Scientifique, priority 2021, published 2025)
Entries after “also recorded” stand apart in the source; their conditions may differ.

How the values were obtained:
Assay type in all cases: cell-based, human
[1] = system: XG-1, XG-7 and OPM-2 cell lines; experiment: Apoptosis induction (Annexin V staining or PARP-cleavage, flow cytometry); settings: IC50 of ironomycin, 72H
Method: XG-1, XG-7 and OPM-2 cell lines were treated with IC50 of ironomycin during 72H. Apoptosis induction was monitored by Annexin V staining (XG-1 and XG-7) or PARP-cleavage and analyzed by flow cytometry (A).
(§1) Annexin V-PE staining for apoptosis analysis was performed using the “PE Annexin V Apoptosis Detection Kit I” (559763, Becton Dickinson).
(§2) The cell cycle progression was studied by flow cytometry using the Apoptosis, DNA Damage, and Cell Proliferation Kit (562253, Becton Dickinson). Briefly, cells were labeled with bromodeoxyuridine (BrdU), an analog of the DNA precursor thymidine that can be incorporated into newly synthesized DNA and detected with an antibody against BrdU to measure cell proliferation. After this labeling, the cells were fixed, permeabilized and treated with DNase to expose the BrdU epitopes. Following this treatment, cells were simultaneously stained with fluorochrome-labeled anti-BrdU, anti-cleaved Poly A DP-ribose polymerase 1 (PARP), anti-H2AX phosphorylated at serine 139. They were also stained with DAPI to determine DNA content. Finally, cells were resuspended in staining buffer and analyzed by flow cytometry (Fortessa, Becton Dickinson).

MYC = experiment: Western blot of MYC protein level; settings: 24H
Method: Cells were treated with iron chelators (80 μM Deferasirox), and Ironomycin (IC50 and 200 nM) during 24H. Protein levels of MMSET (isoforms I and II), MYC, H3K36me3 and H3K27me3 were analyzed by western blot. MMSET (isoforms I and II) and MYC signal were normalized by α-tubulin protein level, H3K36me3 and H3K27me3 signal were normalized by total histone 3 protein level.
The total cell lysates were obtained with RIPA 1× lysis buffer (#9806, Cell Signaling®) according with the supplier recommendations.
Protein lysates migrate on 10% polyacrylamide gel (NP-0301, Novex, Life Technologies®), in MOPS 1× running buffer (NP0001, Novex, Life Technologies®) or MES 1× running buffer NP-0002, Novex, Life Technologies®) and proteins are transferred to nitrocellulose membrane (1B301001, I-Blot Transfert Starck, NuPAGE, Life Technologies®). The primary antibodies mouse-anti-phospho-Histone H2A.X (Ser139) clone JBW301 ( 1/1000, Merck Millipore), anti-H3K36me3 (#ab9050, abcam®), anti-H3K27me3 (#9733, Cell Signaling®), anti-MMSET (#65127, Cell Signaling® et ab75359, abcam), anti-MYC (#5605, Cell Signaling®) were incubated in TBS-Tween 20 0.1% (Tris-Buffered Saline, pH 7.4) with 5% non-fat milk or Bovine serum albumin (Sigma-Aldrich, A7906). […] Quantification of protein levels was performed with Image J® software (National Institutes of Health, Bethesda, MD, USA).

[2] = system: XG-1, XG-7 and OPM-2 cells; experiment: Cell cycle analysis (BrdU incorporation/DAPI, flow cytometry); settings: IC50 Ironomycin, 72 hours
Method: XG-1, XG-7 and OPM-2 cells were incubated with vehicle or with IC50 Ironomycin for 72 hours. Cell cycle was analyzed using flow cytometry, S phase was stained by an anti-BrdU antibody after BrdU incorporation and DNA content was strained by 4′,6-diamidino-2-phénylindole (DAPI). Histograms represent the mean percentage and SD of each cell cycle phase of three independent experiments. * and ** indicate a significant difference of P<0.05 and P<0.01, respectively with paired student t-test.
as §2

[3] = system: CD34+ cells (normal hematopoietic progenitors)
Method: Hematopoietic progenitor colony-forming units assay were performed with CD34+ cells from apheresis of 5 donors. Cells were cultured in hydroxyl-methyl-cellulose medium with or without conventional chemotherapy or Ironomycin (A) or AM-23 (B). CFU-C, CFU-E/BFU-E and CFU-GM, -G, -M were counted after 14 days culture. N=5.

XG-7 and OPM-2 cell line = experiment: Apoptosis with iron supplementation (FeCl3), Annexin V-PE; settings: 80 μM deferasirox or 100 nM Ironomycin, 4 hours then 72H with FeCl3 100 μM
Method: XG-7 and OPM-2 cell line was pre-incubated with or without 80 μM of deferasirox or 100 nM of Ironomycin, for 4 hours followed by 72H incubation in presence or absence of FeCl3 (100 μM). Apoptosis was assessed using Annexin V-PE staining by flow cytometry.
as §1

XG7 and OPM-2 cells = experiment: Cell death with pan caspase inhibitor Q-VD-Oph pretreatment, AnnexinV-PE; settings: 20 μM Q-VD-Oph pretreatment, 48H
Method: XG7 and OPM-2 cells were pretreated at least 30 minutes by 20 μM of Q-VD-Oph as pan caspase inhibitor before treatment. Cells were treated as indicated during 48H, effect of Ironomycin on cell death induction was analyzed using AnnexinV-PE staining by flow cytometry (B). N=4.
as §1

MM cell lines = experiment: Cell growth inhibition in panel of MM cell lines; settings: 96H
Method: The panel of 17 HMCL cell lines were incubated with increasing concentrations of Ironomycin (A), AM23 (B) or vehicle for 96H.
HMCL cell lines were cultured for 4 days in 96-well flat-bottom microtiter plates in RPMI 1640 medium or DMEM medium, 10% or 20% FCS (control medium) in the presence of various compounds. The number of viable cells in culture was determined using the Cell Titer-Glo Luminescent Cell Viability Assay from Promega, Madison, WI, USA using a Centro LB 960 luminometer (Berthold Technologies, Bad Wildbad, Germany).
This test is based on quantitation of the intracellular ATP present, which signals the presence of metabolically active cells. Data are expressed as the mean percentage of six replicates, normalized to the untreated control.
The therapeutic interest of iron metabolism inhibitors AM5 (Ironomycin) and AM23 was further investigated using large collection of 18 MM cell lines (Moreaux J et al. Haematologica 2011; Vikova V et al. Theranostics 2019). The IC50 of Ironomycin and AM23 respectively are illustrated in the Table 5 hereunder: […]

Structure (SMILES): C#CCN[C@@H]1C=C[C@]2(O[C@H]([C@@H](CC)C(=O)[C@@H](C)[C@@H](O)[C@H](C)[C@@H]3O[C@@H]([C@@H](CC)C(=O)O)CC[C@@H]3C)[C@@H](C)C[C@H]2C)O[C@@]12CC[C@@](C)([C@H]1CC[C@](O)(CC)[C@H](C)O1)O2 [Ironomycin]
- apoptosis induction [1]: induces apoptosis
- MYC protein expression (MYC): significant downregulation
- proliferation of MM cells (cell cycle) [2]: inhibition of proliferation of MM cells
- toxicity on normal hematopoietic progenitors [3]: low toxicity
- effect of iron supplementation on induced apoptosis (XG-7 and OPM-2 cell line): not reversed by Iron supplementation
- effect of iron supplementation on induced apoptosis (XG-7 and OPM-2 cell line; listed as ironomycin): did not affect
- inhibition of induced apoptosis by pan caspase inhibitor Q-VD-Oph (XG7 and OPM-2 cells): partially inhibited
- cell growth inhibition / toxicity on MM cell lines (MM cell lines): significant cell growth inhibition; also recorded: kill MM cells with nanomolar concentration
